Source: publication PMC4980838 (European journal of medicinal chemistry, 2010)

Assays:
[1] = target: recombinant human PDE5 enzyme (Homo sapiens, UniProt O76074); assay: Phosphodiesterase assay; type: biochemical
[2] = test system: human HT-29 colon tumor cell line; assay: Tumor cell growth inhibition, HT-29; type: cell-based; settings: HT-29, 72 h, read-out: Growth inhibition IC50

- PDE5 inhibitory activity (in words) [1]: did not show PDE5 inhibitory activity
- IC50 [2]: 1600 nM
Structure (SMILES): COC(=O)[C@@H]1Cc2c([nH]c3ccccc23)[C@@H](c2ccccc2Br)N1C(=O)CCl [Compound 6d, Methyl (1R,3S)-1-(2-bromophenyl)-2-(2-chloroacetyl)-2,3,4,9-tetrahydro-1H-β-carboline-3-carboxylate]
